# Patent US11192900B2, “Substituted 1,6-dihydropyridinones and 1,2-dihydroisoquinolinones as bet inhibitors” (NUVATION BIO INC., priority 2018, dated 2021)
# Like-named read-outs stand apart in the source and are kept apart here.
# Columns and labels:
# K562 = experiment: Cell viability assay (XTT); assay type: cell-based; settings: Homo sapiens, up to 72 hr
# Method: (§1) A panel of BET-sensitive and insensitive cell lines were profiled for effect on cell viability using compound 3. Cells were cultured in the presence of inhibitors at various concentrations for up to 72 hr. For cell viability assays as previously described (Guo Y, et al. 2012. J Hematol Oncol 5:72; Chen Y, et al. 2016. Oncogene 35:2971-8), 0.08 mg/ml XTT (2,3-bis-(2-methoxy-4-nitro-5-sulfophenyl)-2H-tetrazolium-5-carboxanilide) and 8 μM phenazine methyl sulfate (PMS) were added to the cells at the end of the test compound or vehicle treatment duration, and absorbance at 450 nm was measured after 3 hr incubation at 37° C. Assays were performed in triplicates. IC50 values were estimated using a non-linear mixed effect model fitting a sigmoid curve to the experimental dose response data (Vis D J, et al. 2016. Pharmacogenomics 17(7):691-700).
# U2973 = experiment: Cell viability assay (XTT); assay type: cell-based; settings: Homo sapiens, U-2973, up to 72 hr
# Method: as §1
# Jurkat = experiment: Cell viability assay (XTT); assay type: cell-based; settings: Homo sapiens, up to 72 hr
# Method: as §1
# THP-1 = experiment: Cell viability assay (XTT); assay type: cell-based; settings: Homo sapiens; THP-1, XTT, up to 72 hr
# Method: as §1
# HEL = experiment: Cell viability assay (XTT); assay type: cell-based; settings: Homo sapiens, up to 72 hr
# Method: as §1
# MV-4-11 = experiment: Cell viability assay (XTT); assay type: cell-based; settings: Homo sapiens, MV4-11; MV-4-11, XTT, up to 72 hr
# Method: as §1
# MEG-01 = experiment: Cell viability assay (XTT); assay type: cell-based; settings: Homo sapiens; MEG-01, XTT, up to 72 hr
# Method: as §1
# Molt-4 = experiment: Cell viability assay (XTT); assay type: cell-based; settings: Homo sapiens; Molt-4, XTT, up to 72 hr
# Method: as §1
# SET-2 = experiment: Cell viability assay (XTT); assay type: cell-based; settings: Homo sapiens; SET-2, XTT, up to 72 hr
# Method: as §1
# OCI-LY18 = experiment: Cell viability assay (XTT); assay type: cell-based; settings: Homo sapiens, up to 72 hr
# Method: as §1
# [1] = test system: IEC-6 rat intestinal epithelial cell line; experiment: IEC-6 cell viability, Protocol A (toxicity to non-cancerous cells); assay type: cell-based; settings: IEC-6, 3000 cells per well, 96 hrs
# Method: The effects of test compounds were also studied in the IEC-6 rat intestinal epithelial cell line to assess potential toxicity to non-cancerous cells. The cells were harvested during the logarithmic growth period and counted. In Protocol A, cells were seeded at a count of 3000 cells per well/100 μl in a 96-well plate. After seeding, cells were incubated at 37° C., 5% CO2 for 24 hr. Cells were treated with test compounds at 8 concentrations within a desired concentration range (e.g. 5 nM-10 μM) for generation of dose response curves by preparing serial dilutions of the test compound in DMSO which were further diluted with culture medium and then added to each well. The plate was further incubated for another 96 hrs in humidified incubator at 37° C. and 5% CO2. The assay was terminated by addition of resazurin (# R7017, Sigma). The plate was incubated for 4 hr at 37° C., 5% CO2 and fluorescence was measured using excitation and emission wavelengths of 535 and 590 nm, respectively. Cell viability data were plotted using GraphPad Prism (GraphPad Software, Inc., San Diego, Calif.). In addition, a nonlinear regression model with a sigmoidal dose response and variable slope within GraphPad Prism was used to calculate the IC50 value of individual test compounds. […]
# 22Rv1 cells = experiment: 22Rv1 cell proliferation assay with wash-off or mock wash-off; assay type: cell-based, human; settings: Homo sapiens
# Method: A 22Rv1 cell proliferation assay was used to assess durability of test compound effects after transient exposure of test compound to cells. 22Rv1 cells were seeded at 3000 cells per well/100 μl in a 96-well plate and incubated with test compounds at specified dilutions for 2 hr at 37° C. and 5% CO2. Following the incubation, test compound was washed off and replacement culture medium without test compound was added. Wash-off was performed by three PBS washes. The cells were incubated for an additional 96 hr at 37° C. and 5% CO2. In parallel, a mock wash-off was performed with cells that were treated identically except that the replacement culture medium contained test compound. The plate was incubated for 4 hr at 37° C., 5% CO2 and fluorescence was measured using excitation and emission wavelengths of 535 and 590 nm, respectively. Cell viability data were plotted using GraphPad Prism (GraphPad Software, Inc., San Diego, Calif.). In addition, a nonlinear regression model with a sigmoidal dose response and variable slope within GraphPad Prism was used to calculate the IC50 value of individual test compounds.
# [2] = test system: MV-4-11 human acute myeloid leukemia cell line; experiment: Second cell viability assay in MV-4-11 (Cell Titer-Glo); assay type: cell-based; settings: Homo sapiens; MV4-11, Cell Titer-Glo, 72 hrs; read-out: Cell Viability IC50 in MV4-11 cells
# Method: The effects of test compounds were studied in a second cell viability assay in the MV-4-11 human acute myeloid leukemia cell line. The cells were harvested during the logarithmic growth period and counted. Cells were seeded at a count of 15000 cells per well/100 μl. After seeding, cells were incubated at 37° C., 5% CO2 for 1 hr. Cells were treated with test compounds at 8 concentrations within a desired concentration range (e.g. 5 nM-[…]) for generation of dose response curves by preparing serial dilutions of the test compound in DMSO which were further diluted with culture medium and then added to each well. The plate was further incubated for another 72 hrs in a humidified incubator at 37° C. and 5% CO2. The assay was terminated by addition of Cell Titer-Glo reagent (Promega, Madison, Wis.) at ¼ the volume of total medium per well. Contents were mixed, the plate was incubated for 10 min at room temperature and luminescence was measured. Cell viability data were plotted using GraphPad Prism (GraphPad Software, Inc., San Diego, Calif.). In addition, a nonlinear regression model with a sigmoidal dose response and variable slope within GraphPad Prism was used to calculate the IC50 value of individual test compounds.
smiles,measurement,setting,value
"C=CS(=O)(=O)Nc1ccc(Oc2ccc(F)cc2F)c(-c2cc(NC)c(=O)n(C)c2)c1 [Compound 3, N-(4-(2,4-difluorophenoxy)-3-(1-methyl-5-(methylamino)-6-oxo-1,6-dihydropyridin-3-yl)phenyl)ethenesulfonamide]",IC50,K562,5 µM
same,IC50,U2973,240 nM
same,IC50,Jurkat,6 µM
same,IC50,THP-1,250 nM
same,IC50,HEL,400 nM
same,IC50,MV-4-11,100 nM
same,IC50,MEG-01,310 nM
same,IC50,Molt-4,300 nM
same,IC50,SET-2,90 nM
same,IC50,OCI-LY18,420 nM
same,IC50,[1],339 nM
same,IC50,"22Rv1 cells; 22Rv1, 2 hr exposure, three PBS washes, additional 96 hr without compound, read-out: Wash-off IC50",96 nM
same,IC50,"22Rv1 cells; 22Rv1, 2 hr, replacement medium with test compound, additional 96 hr, read-out: Mock wash-off IC50",342 nM
same,IC50,[2],28 nM
